Data taken from patent publication US6127136A, “Detection of dioxin-like compounds by detection of transformed Ah receptor/ARNT complex” (Paracelsian, Inc., priority 1996, dated 2000).

Key:
[1] = biological target: T1, transformed Ah receptor/ARNT complex (Cavia porcellus, UniProt Q6J287); assay: Ah-ELISA, optimization of salt concentration; format: biochemical, guinea pig (hepatic cytosol); parameters: from tissue; host or cells: hepatic cytosol of male Hartley guinea pigs (animals from Cornell Research Animal Resources)
Experimental: The reagents and ELISA plate were prepared as described in Example 7, except the anti-Rabbit/alkaline phosphatase (Sigma, St. Louis, Mo.) was prepared to make a 1:4000 dilution. The final DRE dilution was 31.2 pmol per well. The final dilution of anti-ARNT was 0.275 ug per mL. The DRE was 1/32 of the highest dilution, which corresponds to a final dilution of 0.25 nmol/uL hybridized DRE x 10.6 uL DRE/1700 uL cytosol or 31.2 pmol per well. All other concentrations were the same. All assays were run at approximately 30° C.
The salt concentration during cytosol incubation was varied from 150 mM to 255 mM NaCl at 15 mM increments with a 0 mM NaCl control for with either DMSO or TCDD to determine the effect of salt concentration on background detection. Thus, the assay was run on samples with DMSO (-) or TCDD (+) added at the concentrations taught in Example 7.

[2] = biological target: T1, transformed Ah receptor/ARNT complex; assay: Ah-ELISA dose response using PnPP detection; format: biochemical, guinea pig (hepatic cytosol); parameters: from tissue; host or cells: hepatic cytosol of male Hartley guinea pigs (animals from Cornell Research Animal Resources); settings: for Average Optical Density: 405 nm, PnPP 58 minutes
Experimental: The reagents and ELISA plate were prepared as described in Example 9 with the standard PNPP detection technique. The TCDD concentration was varied tested at 0, 0.016, 0.031, 0.063, 0.125, 0.25, 0.5, and 1.0 nM. After washing the plates PnPP stock was added to each well (200 uL) and the plate was incubated for 1 hour (actually 58 minutes for data shown below), at which time it was read at 405 nm in an ELISA plate reader and milli O.D. recorded.

T1 sequence (Q6J287 1-846): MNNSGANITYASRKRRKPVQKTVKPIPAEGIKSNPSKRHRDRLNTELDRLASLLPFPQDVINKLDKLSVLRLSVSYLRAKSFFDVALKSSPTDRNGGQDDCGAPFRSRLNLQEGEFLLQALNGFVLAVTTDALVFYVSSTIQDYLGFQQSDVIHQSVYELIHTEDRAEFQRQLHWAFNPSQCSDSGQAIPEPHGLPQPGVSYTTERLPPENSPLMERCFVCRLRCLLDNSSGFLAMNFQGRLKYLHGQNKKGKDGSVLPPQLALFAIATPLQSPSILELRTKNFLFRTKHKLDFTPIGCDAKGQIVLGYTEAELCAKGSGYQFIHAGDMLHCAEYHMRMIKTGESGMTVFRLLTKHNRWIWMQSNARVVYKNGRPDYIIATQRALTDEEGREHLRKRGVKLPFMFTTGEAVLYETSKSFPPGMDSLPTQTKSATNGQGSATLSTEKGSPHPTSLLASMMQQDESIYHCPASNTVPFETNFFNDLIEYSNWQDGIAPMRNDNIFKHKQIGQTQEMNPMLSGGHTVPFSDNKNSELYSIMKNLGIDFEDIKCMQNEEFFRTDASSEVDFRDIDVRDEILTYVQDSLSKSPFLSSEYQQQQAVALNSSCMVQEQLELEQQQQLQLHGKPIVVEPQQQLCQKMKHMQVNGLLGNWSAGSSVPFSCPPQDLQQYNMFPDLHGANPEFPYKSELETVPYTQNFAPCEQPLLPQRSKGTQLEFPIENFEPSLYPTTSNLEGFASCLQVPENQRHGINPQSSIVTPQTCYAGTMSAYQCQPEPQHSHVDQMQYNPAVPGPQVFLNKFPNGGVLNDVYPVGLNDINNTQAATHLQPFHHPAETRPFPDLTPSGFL
T1 sequence (Q0WXX3 1-790 partner): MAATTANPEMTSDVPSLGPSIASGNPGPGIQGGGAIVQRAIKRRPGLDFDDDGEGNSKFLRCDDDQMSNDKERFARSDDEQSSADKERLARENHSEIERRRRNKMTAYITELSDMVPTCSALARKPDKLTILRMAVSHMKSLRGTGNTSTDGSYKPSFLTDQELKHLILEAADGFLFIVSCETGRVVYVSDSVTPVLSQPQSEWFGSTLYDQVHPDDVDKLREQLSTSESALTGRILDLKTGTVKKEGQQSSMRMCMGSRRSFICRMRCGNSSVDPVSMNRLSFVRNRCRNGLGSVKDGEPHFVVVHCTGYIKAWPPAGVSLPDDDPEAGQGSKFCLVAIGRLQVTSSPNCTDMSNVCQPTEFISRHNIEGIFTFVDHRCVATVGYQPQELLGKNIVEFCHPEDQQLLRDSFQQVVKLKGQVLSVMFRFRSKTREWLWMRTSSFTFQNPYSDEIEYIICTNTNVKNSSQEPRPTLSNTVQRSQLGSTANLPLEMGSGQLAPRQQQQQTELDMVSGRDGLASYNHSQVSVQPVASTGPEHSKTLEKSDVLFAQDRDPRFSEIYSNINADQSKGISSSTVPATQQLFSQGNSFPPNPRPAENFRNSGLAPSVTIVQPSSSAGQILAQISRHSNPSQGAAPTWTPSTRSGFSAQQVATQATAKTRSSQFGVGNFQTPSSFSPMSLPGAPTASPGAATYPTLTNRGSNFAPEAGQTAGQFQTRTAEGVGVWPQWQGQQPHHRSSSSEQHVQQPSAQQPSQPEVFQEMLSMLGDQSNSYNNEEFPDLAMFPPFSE

Clc1cc2c(cc1Cl)Oc1cc(Cl)c(Cl)cc1O2 [TCDD, 2,3,7,8-tetrachlorodibenzo-p-dioxin]
DIFF ([1]; 0 mM NaCl): 1879 | RATIO ([1]; 0 mM NaCl): 6.298 | ELISA signal (+) ([1]; 0 mM NaCl, TCDD (+)): 2233 | DIFF ([1]; 150 mM NaCl): 2587 | RATIO ([1]; 150 mM NaCl): 18.03 | ELISA signal (+) ([1]; 150 mM NaCl, TCDD (+)): 2739 | DIFF ([1]; 165 mM NaCl): 2625 | RATIO ([1]; 165 mM NaCl): 21 | ELISA signal (+) ([1]; 165 mM NaCl, TCDD (+)): 2756 | DIFF ([1]; 180 mM NaCl): 2661 | RATIO ([1]; 180 mM NaCl): 25.96 | ELISA signal (+) ([1]; 180 mM NaCl, TCDD (+)): 2767 | DIFF ([1]; 195 mM NaCl): 2609 | RATIO ([1]; 195 mM NaCl): 26.35 | ELISA signal (+) ([1]; 195 mM NaCl, TCDD (+)): 2712 | DIFF ([1]; 210 mM NaCl): 2215 | RATIO ([1]; 210 mM NaCl): 26.29 | ELISA signal (+) ([1]; 210 mM NaCl, TCDD (+)): 2303 | DIFF ([1]; 225 mM NaCl): 1697 | RATIO ([1]; 225 mM NaCl): 21.89 | ELISA signal (+) ([1]; 225 mM NaCl, TCDD (+)): 1779 | DIFF ([1]; 240 mM NaCl): 1333 | RATIO ([1]; 240 mM NaCl): 16.76 | ELISA signal (+) ([1]; 240 mM NaCl, TCDD (+)): 1418 | DIFF ([1]; 255 mM NaCl): 1109 | RATIO ([1]; 255 mM NaCl): 12.07 | ELISA signal (+) ([1]; 255 mM NaCl, TCDD (+)): 1210 | DIFF ([1]; column S9): 86.67 | RATIO ([1]; column S9): 1.667 | ELISA signal (+) ([1]; column S9, TCDD (+)): 216.6 | salt concentration giving best ratio of background to detection of TCDD ([1]; during cytosol incubation): 180-195 mM NaCl | Average Optical Density ([2]; 0.016 nM TCDD): 0.3 | Average Optical Density ([2]; 0.031 nM TCDD): 0.338 | Average Optical Density ([2]; 0.063 nM TCDD): 0.4 | Average Optical Density ([2]; 0.125 nM TCDD): 0.527 | Average Optical Density ([2]; 0.25 nM TCDD): 0.804 | Average Optical Density ([2]; 0.5 nM TCDD): 1.409 | Average Optical Density ([2]; 1 nM TCDD): 2.155 | EC50 ([2]; PnPP detection, FIG. 6): ~0.248 nM
